According to PubChem BioAssay AID256 (DTP/NCI, 2004):
Where “and” joins values, the source holds several entries; their conditions need not be identical. Equal entries are not always repeated. Toxic doses and inconclusive results are not listed. The calls were made as follows: active = survival T/C of 150% or more; inactive = T/C below 125% in these data.

Tested on: CD2F1 mice, L1210 leukemia ip, survival T/C
Assay: NCI In Vivo Anticancer Drug Screen. Data for tumor model L1210 Leukemia (intraperitoneal) in CD2F1 (CDF1) mice
Conditions: higher = longer survival
How it was run: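 Transplantable tumor in mice; compound-treated vs vehicle-treated groups. Read-out = treated/control ratio of the measured endpoint.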

[1] = endpoint: mean survival time, dose: 100.0 mg/kg/injection, schedule: Q01DX001 (ip), vehicle: saline
[2] = endpoint: mean survival time, dose: 200.0 mg/kg/injection, schedule: Q01DX001 (ip), vehicle: saline
[3] = endpoint: mean survival time, dose: 400.0 mg/kg/injection, schedule: Q01DX001 (ip), vehicle: saline
[4] = endpoint: mean survival time, dose: 100.0 mg/kg/injection, schedule: Q04DX003 (ip), vehicle: Klucel (hydroxypropylcellulose) (HPC)
[5] = endpoint: mean survival time, dose: 200.0 mg/kg/injection, schedule: Q04DX003 (ip), vehicle: Klucel (hydroxypropylcellulose) (HPC)
[6] = endpoint: mean survival time, dose: 400.0 mg/kg/injection, schedule: Q04DX003 (ip), vehicle: Klucel (hydroxypropylcellulose) (HPC)
[7] = endpoint: mean survival time, dose: 100.0 mg/kg/injection, schedule: Q04DX002 (ip), vehicle: saline with Tween-80
[8] = endpoint: mean survival time, dose: 200.0 mg/kg/injection, schedule: Q04DX002 (ip), vehicle: saline with Tween-80
[9] = endpoint: mean survival time, dose: 400.0 mg/kg/injection, schedule: Q04DX002 (ip), vehicle: saline with Tween-80
[10] = endpoint: mean survival time, dose: 100.0 mg/kg/injection, schedule: Q04DX003 (ip), vehicle: saline
[11] = endpoint: mean survival time, dose: 200.0 mg/kg/injection, schedule: Q04DX003 (ip), vehicle: saline
[12] = endpoint: mean survival time, dose: 400.0 mg/kg/injection, schedule: Q04DX003 (ip), vehicle: saline
[13] = endpoint: mean survival time, dose: 100.0 mg/kg/injection, schedule: Q01DX009 (ip), vehicle: saline with Tween-80
[14] = endpoint: mean survival time, dose: 200.0 mg/kg/injection, schedule: Q01DX009 (ip), vehicle: saline with Tween-80
[15] = endpoint: mean survival time, dose: 400.0 mg/kg/injection, schedule: Q01DX009 (ip), vehicle: saline with Tween-80
[16] = endpoint: mean survival time, dose: 50.0 mg/kg/injection, schedule: Q04DX002 (ip), vehicle: saline with Tween-80
[17] = endpoint: mean survival time, dose: 100.0 mg/kg/injection, schedule: Q04DX003 (ip), vehicle: saline with Tween-80
[18] = endpoint: mean survival time, dose: 200.0 mg/kg/injection, schedule: Q04DX003 (ip), vehicle: saline with Tween-80
[19] = endpoint: mean survival time, dose: 400.0 mg/kg/injection, schedule: Q04DX003 (ip), vehicle: saline with Tween-80
[20] = endpoint: mean survival time, dose: 75.0 mg/kg/injection, schedule: Q01DX001 (ip), vehicle: saline
[21] = endpoint: mean survival time, dose: 150.0 mg/kg/injection, schedule: Q01DX001 (ip), vehicle: saline

Measured: T/C

NP(=O)(OCCC(OCc1ccccc1)OCc1ccccc1)N(CCCl)CCCl (configuration not stated)
inactive: endpoint: mean survival time, dose: 25.0 mg/kg/injection, schedule: Q01DX001 (ip), vehicle: DMSO 100 % of control | endpoint: mean survival time, dose: 50.0 mg/kg/injection, schedule: Q01DX001 (ip), vehicle: DMSO 100 % of control | endpoint: mean survival time, dose: 100.0 mg/kg/injection, schedule: Q01DX001 (ip), vehicle: DMSO 91 % of control | endpoint: mean survival time, dose: 200.0 mg/kg/injection, schedule: Q01DX001 (ip), vehicle: DMSO 97 % of control | endpoint: mean survival time, dose: 400.0 mg/kg/injection, schedule: Q01DX001 (ip), vehicle: DMSO 103 % of control

N=C1N(c2ccc(C(=O)NC(CCC(=O)O)C(=O)O)cc2)CC2CNc3nc(N)[nH]c(=O)c3N12 (configuration not stated)
inactive: [1] 100 % of control | [2] 93 % of control | [3] 104 % of control

COc1ccccc1/C=N/NC(=O)c1ccccc1
inactive: endpoint: mean survival time, dose: 100.0 mg/kg/injection, schedule: Q01DX009 (ip), vehicle: Klucel (hydroxypropylcellulose) (HPC) 102 % of control | [4] 91 % of control | endpoint: mean survival time, dose: 200.0 mg/kg/injection, schedule: Q01DX009 (ip), vehicle: Klucel (hydroxypropylcellulose) (HPC) 96 % of control | [5] 96 % of control | endpoint: mean survival time, dose: 400.0 mg/kg/injection, schedule: Q01DX009 (ip), vehicle: Klucel (hydroxypropylcellulose) (HPC) 108 % of control | [6] 94 % of control

CC1CN1P(=O)(N1CC1C)N1CC1C.CC1CN1P(=O)(N1CC1C)N1CC1C.CC1CN1P(=O)(N1CC1C)N1CC1C.CC1CN1P(=O)(N1CC1C)N1CC1C.CC1CN1P(=O)(N1CC1C)N1CC1C.CC1CN1P(=O)(N1CC1C)N1CC1C.[Fe+3].[O-][Cl+3]([O-])([O-])O (configuration not stated)
inactive: [7] 98 % of control | [8] 98 % of control | [9] 115 % of control

CCCCCCCCC(O)CCC (configuration not stated)
inactive: [10] 96 % of control | [11] 98 % of control | [12] 100 % of control

CC(=O)OCC1OC(Oc2c(Br)cc(Br)cc2Br)C(OC(C)=O)C(OC(C)=O)C1OC(C)=O (configuration not stated)
inactive: [13] 96 % of control | [14] 94 % of control | [15] 96 % of control

Nc1cccc2c1-c1ccccc1C2
inactive: endpoint: mean survival time, dose: 50.0 mg/kg/injection, schedule: Q04DX003 (ip), vehicle: Klucel (hydroxypropylcellulose) (HPC) 105 % of control | [4] 96 % of control | [5] 102 % of control

CCOC(=O)C1(C(=O)OCC)CC2(COC(c3ccccc3)OC2)C1
inactive: [10] 97 % of control | [11] 97 % of control | [12] 95 % of control

S=C=Nc1ccc(Cl)c2ccccc12
inactive: endpoint: mean survival time, dose: 12.5 mg/kg/injection, schedule: Q04DX002 (ip), vehicle: saline with Tween-80 90 % of control | endpoint: mean survival time, dose: 25.0 mg/kg/injection, schedule: Q04DX002 (ip), vehicle: saline with Tween-80 98 % of control | [16] 102 % of control

C/C(=N\NC(N)=S)c1c(O)cc(C)[nH]c1=O
inactive: [1] 97 % of control | [2] 101 % of control | [3] 98 % of control

C[Si]1(C)N(c2ccccc2)[Si](C)(C)N(c2ccccc2)[Si](C)(C)N1c1ccccc1
inactive: [13] 105 % of control | [17] 105 % of control | [14] 107 % of control | [18] 94 % of control | [15] 106 % of control | [19] 93 % of control

Cc1ncc(C[P+](c2ccccc2)(c2ccccc2)c2ccccc2)c2c1OC(C)(C)OC2
inactive: [20] 103 % of control | [21] 112 % of control

O=C(Nc1ccc(Nc2ccccc2)cc1)Nc1cc([N+](=O)[O-])ccc1Cl
inactive: endpoint: mean survival time, dose: 50.0 mg/kg/injection, schedule: Q01DX001 (ip), vehicle: saline with Tween-80 92 % of control | endpoint: mean survival time, dose: 100.0 mg/kg/injection, schedule: Q01DX001 (ip), vehicle: saline with Tween-80 86 % of control and 90 % of control | [13] 91 % of control and 98 % of control | [7] 93 % of control and 100 % of control | [17] 87 % of control | endpoint: mean survival time, dose: 200.0 mg/kg/injection, schedule: Q01DX001 (ip), vehicle: saline with Tween-80 90 % of control | [14] 100 % of control and 109 % of control | [8] 91 % of control and 92 % of control | [18] 95 % of control | endpoint: mean survival time, dose: 400.0 mg/kg/injection, schedule: Q01DX001 (ip), vehicle: saline with Tween-80 91 % of control | [15] 103 % of control and 111 % of control | [9] 92 % of control and 98 % of control | [19] 98 % of control

CC(=O)OC1C=CS(=O)(=O)C1 (configuration not stated)
inactive: [17] 108 % of control | [18] 103 % of control | [19] 105 % of control

O=C(OCc1ccccc1)OC1C2COC(O2)C(OC(=O)OCc2ccccc2)C1O (configuration not stated)
inactive: [13] 95 % of control | [14] 95 % of control | [15] 89 % of control

CC(=O)C1=C(C)NC(C)=C(C(C)=O)C1c1cccc([N+](=O)[O-])c1
inactive: [17] 94 % of control | [18] 91 % of control | [19] 96 % of control

NNC(=O)c1cc2ccccc2cc1O
inactive: [13] 97 % of control | [14] 86 % of control | [15] 94 % of control

Nc1ncnc2c1[nH]c(=O)n2C1OC(CO)C2OC21 (configuration not stated)
inactive: endpoint: mean survival time, dose: 12.5 mg/kg/injection, schedule: Q01DX005 (ip), vehicle: distilled water + Tween-80 102 % of control | endpoint: mean survival time, dose: 25.0 mg/kg/injection, schedule: Q01DX005 (ip), vehicle: distilled water + Tween-80 95 % of control | endpoint: mean survival time, dose: 50.0 mg/kg/injection, schedule: Q01DX005 (ip), vehicle: distilled water + Tween-80 101 % of control | endpoint: mean survival time, dose: 100.0 mg/kg/injection, schedule: Q01DX005 (ip), vehicle: distilled water + Tween-80 92 % of control | endpoint: mean survival time, dose: 200.0 mg/kg/injection, schedule: Q01DX005 (ip), vehicle: distilled water + Tween-80 95 % of control

COc1nc(NC2OC(CO)C(O)C(O)C2O)c(C(C)=O)c(=O)[nH]1 (configuration not stated)
inactive: endpoint: median survival time, dose: 12.5 mg/kg/injection, schedule: Q01DX005 (ip), vehicle: saline 97 % of control | endpoint: median survival time, dose: 25.0 mg/kg/injection, schedule: Q01DX005 (ip), vehicle: saline 98 % of control | endpoint: median survival time, dose: 50.0 mg/kg/injection, schedule: Q01DX005 (ip), vehicle: saline 98 % of control | endpoint: median survival time, dose: 100.0 mg/kg/injection, schedule: Q01DX005 (ip), vehicle: saline 97 % of control | endpoint: median survival time, dose: 200.0 mg/kg/injection, schedule: Q01DX005 (ip), vehicle: saline 98 % of control

COc1ccc(C(C)c2ccccc2)cc1 (configuration not stated)
inactive: [13] 97 % of control | [14] 95 % of control | [15] 97 % of control

c1cncc(-c2nc3ccccc3s2)c1
inactive: [4] 103 % of control | [5] 100 % of control | [6] 100 % of control

CCOC(=O)C(=C=[N-])[n+]1ccc(C)cc1
inactive: endpoint: mean survival time, dose: 6.25 mg/kg/injection, schedule: Q01DX001 (ip), vehicle: saline sonified 101 % of control | endpoint: mean survival time, dose: 6.25 mg/kg/injection, schedule: Q01DX009 (ip), vehicle: saline sonified 94 % of control | endpoint: mean survival time, dose: 12.5 mg/kg/injection, schedule: Q01DX001 (ip), vehicle: saline sonified 103 % of control | endpoint: mean survival time, dose: 12.5 mg/kg/injection, schedule: Q01DX009 (ip), vehicle: saline sonified 94 % of control | endpoint: mean survival time, dose: 25.0 mg/kg/injection, schedule: Q01DX001 (ip), vehicle: saline sonified 103 % of control | endpoint: mean survival time, dose: 25.0 mg/kg/injection, schedule: Q01DX009 (ip), vehicle: saline sonified 89 % of control

O=[N+]([O-])c1cc([N+](=O)[O-])c2nc3ccccn3c2c1
inactive: [17] 101 % of control | [18] 101 % of control | [19] 101 % of control

CSC(=CC(=O)c1ccccc1)SC
inactive: [20] 101 % of control | [21] 106 % of control

CCCC[PH+](CCCC)CCCC.CCCC[PH+](CCCC)CCCC.O=[N+]([O-])O.O=[N+]([O-])O.[Ni]
inactive: [16] 92 % of control

CC(C)(CC(=O)O)Cc1ccc([N+](=O)[O-])cc1
inactive: [17] 102 % of control | [18] 98 % of control | [19] 102 % of control

C=C(C)CON=C(c1ccccc1)c1ccccc1
inactive: [13] 98 % of control | [14] 96 % of control | [15] 98 % of control
